# Measurements from US20030180295A1, “Angiocidin: a Cys-Ser-Val-Thr-Cys-Gly specific tumor cell adhesion receptor” (Philadelphia Health and Education Corporation, priority 1999, published 2003).
# What was measured:
# BAEC = assay: Adhesion of BAEC to a substrate; format: cell-based, bovine; conditions: cells pretreated with 37 μg/ml, 30 minutes
# Protocol: This example evaluates the effect of angiocidin on adhesion of BAEC to a substrate. Cells in the treatment group were pretreated with angiocidin (37 μg/ml). Cells in the control group were not pretreated. Cells (50,000) were immediately plated on microtiter wells coated with 2 μg of either fibronectin, TSP-1, or BSA. Fibronectin is a strong extracellular matrix protein that attracts BAEC and serves as a positive control, whereas BSA is not an adhesion protein and serves as a negative control. After 30 minutes non-adherent cells were aspirated, wells washed with PBS, fixed with 2.5% glutaraldehyde, stained with 2% Giemsa, and the number of adherent cells per 1 mm^2 counted.
# fibroblast cells = assay: ALAMAR BLUE cell viability assay; format: cell-based; conditions: 37 μg/ml, 24 hours
# Protocol: (§1) Bovine aortic endothelial cells (BAEC), human umbilical vein endothelial cells (HUVEC), fibroblast cells, A549 human lung carcinoma cells (A549), MDA-MB231 human breast carcinoma cells (MB231), MCF7 human breast carcinoma cells (MCF7) were treated with 37 μg/ml of receptor, or buffer alone, for 24 hours. Viability of the cells was measured using the ALAMAR BLUE™ assay, which measures the capacity of cells to metabolize the ALAMAR BLUE™ dye. The ALAMAR BLUE™ assay (available from Biosource International, Camarillo, Calif.) quantitatively measures the proliferation of cell lines and can establish the relative cytotoxicity of chemical agents. The assay incorporates a fluorometric/colorimetric growth indicator based on detection of metabolic activity. The system incorporates an oxidation-reduction (redox) indicator that both fluoresces and changes color in response to chemical reduction of growth medium resulting from cell growth. This causes the redox indicator to change from its oxidized, non-fluorescent, blue form to its reduced, fluorescent, red form. Data can be collected using either fluorescence-based instrumentation (530-560 nm excitation wavelength and 590 nm emission wavelength) or absorbance-based instrumentation (570 nm and 600 nm).
# [1] = test system: MDA-MB231 human breast carcinoma cells (MB231); assay: ALAMAR BLUE cell viability assay; format: cell-based; conditions: 37 μg/ml, 24 hours
# Protocol: as §1
# [2] = test system: MCF7 human breast carcinoma cells (MCF7); assay: ALAMAR BLUE cell viability assay; format: cell-based; conditions: 37 μg/ml, 24 hours
# Protocol: as §1
# [3] = test system: A549 human lung carcinoma cells (A549); assay: ALAMAR BLUE cell viability assay; format: cell-based; conditions: 37 μg/ml, 24 hours
# Protocol: as §1
# [4] = test system: Bovine aortic endothelial cells (BAEC); assay: Morphology of BAEC monolayer cultures; format: cell-based; conditions: 0.37, 3.7, 37 μg/ml, 24 hours, serum-free medium with 1% BSA
# Protocol: In this experiment, BAEC cells in monolayer cultures were plated for 24 hours in serum-free medium containing 1% BSA in the presence of increasing concentrations of angiocidin (control=none, 0.37 μg/ml, 3.7 μg/ml, 37 μg/ml). Hoffman interference microscopy (100×) was used to photograph the cells.
substance,measurement,setting,value
angiocidin: Cys-Ser-Val-Thr-Cys-Gly (SEQ ID NO: 1)-specific thrombospondin (TSP-1) receptor protein; recombinant form of SEQ ID NO: 2 used in the Examples,adhesion of BAEC,BAEC; TSP-1 coated wells,significantly reduced the adhesion of BAEC to the TSP-1 coated plates
same,adhesion of BAEC,BAEC; fibronectin coated wells,remained the same
same,cell viability,fibroblast cells,No significant difference
same,cell viability,[1],No significant difference
same,cell viability,[2],No significant difference
same,cell viability,[3],No significant difference
same,cell morphology,[4],"elongated, detached from the plate, aggregated, and died"
